Test results: patent US7112654B2, “Ligand for vascular endothelial growth factor receptor” (Supratek Pharma Inc., priority 2001, dated 2006)
Ends that are not written are not given here.

Assays:
hFlt-1 = hFlt-1 (Homo sapiens, UniProt P17948); experiment: Binding of alanine-substituted and truncated phage clones to immobilized Flt-1 receptor by ELISA; details: relative to clone V5.2
[1] = molecular target: VEGF receptor-1 (human Flt-1/Fc chimera) (Homo sapiens, UniProt P17948); experiment: Phage binding assay to immobilized VEGF receptor-1 (anti-M13 ELISA); details: 10^9 virions/200 μl, overnight at 4 degree
Flt-1 = Flt-1 (Homo sapiens, UniProt P17948); details: cited from earlier work
endothelial cells = details: VEGF binding to KDR; cited from earlier work

Chain of hFlt-1 (P17948 27-687 isoform P17948-2 limits assumed): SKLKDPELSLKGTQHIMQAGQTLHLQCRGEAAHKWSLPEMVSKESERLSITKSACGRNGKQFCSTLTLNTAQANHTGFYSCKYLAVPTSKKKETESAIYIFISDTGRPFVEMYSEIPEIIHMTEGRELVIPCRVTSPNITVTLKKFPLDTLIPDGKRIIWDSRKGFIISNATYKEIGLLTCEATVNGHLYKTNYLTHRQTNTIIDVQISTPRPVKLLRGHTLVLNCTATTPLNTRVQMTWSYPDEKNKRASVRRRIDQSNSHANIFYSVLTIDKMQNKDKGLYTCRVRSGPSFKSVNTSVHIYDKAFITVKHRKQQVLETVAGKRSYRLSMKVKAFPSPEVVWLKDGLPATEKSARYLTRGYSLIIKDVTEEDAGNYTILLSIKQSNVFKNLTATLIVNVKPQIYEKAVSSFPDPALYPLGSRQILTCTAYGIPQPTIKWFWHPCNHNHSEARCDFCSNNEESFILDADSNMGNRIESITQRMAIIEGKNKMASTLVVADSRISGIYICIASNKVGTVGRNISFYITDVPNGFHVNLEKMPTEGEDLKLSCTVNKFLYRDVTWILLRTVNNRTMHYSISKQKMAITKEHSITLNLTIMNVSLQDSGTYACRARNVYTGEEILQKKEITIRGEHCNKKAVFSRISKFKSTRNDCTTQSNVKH
Chain of VEGF receptor-1 (human Flt-1/Fc chimera) (P17948 27-687 isoform P17948-2 limits assumed): as above
Chain of Flt-1 (P17948 27-1338, species assumed): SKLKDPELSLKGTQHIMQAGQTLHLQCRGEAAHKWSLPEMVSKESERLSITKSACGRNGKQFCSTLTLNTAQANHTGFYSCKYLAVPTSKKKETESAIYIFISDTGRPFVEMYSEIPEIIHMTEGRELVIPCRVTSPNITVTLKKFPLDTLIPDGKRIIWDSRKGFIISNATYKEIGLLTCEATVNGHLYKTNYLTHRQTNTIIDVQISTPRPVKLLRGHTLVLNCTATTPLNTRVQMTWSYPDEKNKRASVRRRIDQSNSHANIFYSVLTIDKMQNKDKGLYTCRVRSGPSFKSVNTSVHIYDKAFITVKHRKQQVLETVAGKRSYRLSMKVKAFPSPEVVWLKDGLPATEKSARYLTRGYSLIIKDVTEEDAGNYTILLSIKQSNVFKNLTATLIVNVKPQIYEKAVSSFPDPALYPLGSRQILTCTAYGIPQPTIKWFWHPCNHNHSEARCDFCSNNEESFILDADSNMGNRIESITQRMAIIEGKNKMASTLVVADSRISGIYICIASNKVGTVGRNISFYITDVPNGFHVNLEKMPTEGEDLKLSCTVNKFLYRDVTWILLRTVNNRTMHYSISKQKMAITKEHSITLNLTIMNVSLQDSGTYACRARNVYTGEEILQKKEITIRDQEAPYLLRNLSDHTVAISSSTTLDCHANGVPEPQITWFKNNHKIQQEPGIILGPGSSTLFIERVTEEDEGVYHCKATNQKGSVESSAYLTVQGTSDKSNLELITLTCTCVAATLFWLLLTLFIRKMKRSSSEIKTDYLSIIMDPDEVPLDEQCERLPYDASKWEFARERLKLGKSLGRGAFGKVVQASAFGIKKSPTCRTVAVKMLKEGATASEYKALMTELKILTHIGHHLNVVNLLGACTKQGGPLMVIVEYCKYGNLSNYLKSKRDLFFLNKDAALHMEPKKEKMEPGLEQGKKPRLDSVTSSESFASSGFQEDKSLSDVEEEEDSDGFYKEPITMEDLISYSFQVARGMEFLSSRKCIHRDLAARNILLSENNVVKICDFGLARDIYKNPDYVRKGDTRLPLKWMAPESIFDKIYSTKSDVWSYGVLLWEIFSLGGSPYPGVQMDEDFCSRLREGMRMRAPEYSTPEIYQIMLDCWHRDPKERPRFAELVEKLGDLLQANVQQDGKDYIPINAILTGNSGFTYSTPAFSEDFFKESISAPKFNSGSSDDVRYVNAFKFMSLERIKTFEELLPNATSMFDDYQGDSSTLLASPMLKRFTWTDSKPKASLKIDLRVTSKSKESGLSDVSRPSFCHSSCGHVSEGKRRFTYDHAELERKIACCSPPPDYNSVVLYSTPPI

## EIEWYSW (displayed on phage; Chemical peptide synthesis and biosynthesis utilizing E. coli) [V5.2/1]
hFlt-1
  Binding to hFlt-1 in %: 6.55 ± 15.81%

## FVGGWLVPEDERLYPE [V40]
[1]
  ABSORBANCE, A 405: 0.025 ± 0.014

## NGYAIAWYSWVTHGMY (displayed on phage; Chemical peptide synthesis and biosynthesis utilizing E. coli) [E46/A]
hFlt-1
  Binding to hFlt-1 in %: 44.46 ± 7.05%

## NGYEIEAYSAVTHGMY (displayed on phage; Chemical peptide synthesis and biosynthesis utilizing E. coli) [W710/A]
hFlt-1
  Binding to hFlt-1 in %: 62.15 ± 22.16%

## PEPEVRLSPPGHIQSL [V5.10]
[1]
  ABSORBANCE, A 405: 0.039 ± 0.013

## VEGF
Flt-1
  Kd: 0.01 to 0.02 nM
Endothelial cells
  ED50: 0.1 to 1 ng/mL
